Test results published in patent US9597347B2, “Compositions for treating obesity and insulin resistance disorders” (President and Fellows of Harvard College, priority 2003, dated 2017).

Legend:
C. elegans worms = test: Nile Red fat staining in C. elegans fed RNAi bacteria; assay type: in vivo
Experimental: The role of Sir2.1 in fat metabolism was shown in C. elegans worms in which Sir2.1 was RNA inactivated. Young adult worms were grown to adulthood in the presence of bacteria that carry RNAi vector alone or vector encoding Sir2.1 RNAi (R11A8.4), as described below. These worms were grown in the presence or absence of resveratrol, and stained with Nile-Red as described below.
We have examined the C. elegans database and found two gene products that are highly related to mammalian AMPK, TOC1.8 and Par2.3; five genes encoding homologs of CPT-1 and one gene encoding a homolog of COT. C. elegans worms were incubated with bacteria carrying RNAi vector alone, or interfering RNA against TOC1.8 or F41E7.3, a C. elegans homologue of COT in the presence or absence of AICAR. Fat accumulation was visualized with Nile-Red, as described below. […] Thus, AICAR/AMPK signaling to fatty acid oxidation is conserved in worms and mammalian cells.
The effect of TOC1.8 and COT inactivation was then investigated in C. elegans incubated with resveratrol. C. elegans worms were incubated with bacteria carrying RNAi vector alone, or a vector encoding TOC1.8 or COT interfering RNA in the presence or absence of resveratrol. Fat accumulation was visualized with Nile-Red, as described below.
RNAi plates were seeded with HTT5 E. coli carrying either the L4440 RNAi vector control or the specific RNAi clones T01C8.1, AMPK; R11A8.4, sir-2.1; or F41E7.6 COT in the presence or absence of 100 μM resveratrol. Young adults were transferred to plates containing the appropriate vector, Nile Red stain and drug then maintained at 25° C. Nile Red staining was assessed 24 hours after resveratrol treatment by UV microscopy.
HT115 E. Coli carrying the RNAi vector, L4440, were used for maintenance feeding. Bacteria containing experimental RNAi clones were cultured in 10 ml Luria Broth media containing 50 μg/ml ampicillin for 18 hours. 350 μl of each culture was spotted to a 60 mm dish containing NGM agar, 6 mM IPTG and 25 μg/ml carbenicillin. After overnight incubation (at room temp), Nile Red was added on top of each dish to a final concentration of 0.05 μg/ml along with the experimental compounds indicated in the figure legends. Nile Red staining was assessed after 24 hrs by UV microscopy. For each batch of RNAi clones tested, L4440 (vector alone) was included. […] All phenotypes were confirmed by at least three additional rounds of testing.

phosphorylation of ACC [1] = test: Western blot of ACC phosphorylation in HEP3B human hepatoma cells; assay type: cell-based; conditions: resveratrol-treated cells with SIRT1 overexpressed or knocked down
Experimental: Similar results were also observed for HEP3B human hepatoma cells. In this case phosphorylation of ACC was measured in cells were SIRT1 was overexpressed (see FIG. 9, 4 right lanes) and in cells were SIRT1 was knocked down (FIG. 9, left lane). […] Tubulin served as a loading control.

[2] = test system: Wild-type N2 C. elegans worms; test: Nile Red staining of fat accumulation in wild-type N2 C. elegans; assay type: in vivo; conditions: overnight
Experimental: Wild-type N2 C. elegans worms were grown on OP50 bacteria and exposed overnight to vehicle (0.1% ethanol) alone or with 10, 50 or 100 μM of resveratrol (in ethanol). Fat accumulation was visualized with Nile Red staining, as described further below and in Ashrafi K, et al. Nature 421:268-27 (2003).
(§1) Synchronized starved L1 worms were grown in the presence of Nile Red. Strains were grown on NGM plates at 25° C. for approximately 48 hours until the young adult stage was reached. 20-30 young adult worms were then washed 2× with M9 buffer and transferred to new NGM/Nile red experimental plates that contained either OP50 or HTT5 E. coli carrying the L4440 RNAi control vector. For experiments comparing the effect of nicotinamide and resveratrol on fat mobilization, OP50 plates were coated with vehicle alone or Nicotinamide (in PBS), or vehicle alone and Resveratrol (in Ethanol or DMSO).
Resveratrol (Indofine #024964) was dissolved in Ethanol or DMSO to a 10 mM stock solution. Resveratrol was added to 60 mm NGM agar dishes containing either OP50 or RNAi expressing bacteria (HT115) to a final concentration of 10 μm, 50 μm, and 100 μM. Nile Red was also added to plates to a final concentration of 0.05 μg/ml. Nicotinamide (Supelco #47865-U) was diluted in PBS including Nile Red and added to […] dishes containing OP50 to a final concentration of 1 mM, 10 mM, or 100 mM.
Nile Red: Nile Red Powder (Sigma #N-3013) was dissolved in acetone at 500 μg/ml, diluted in 1× Phosphate Buffered Saline (PBS) including appropriate drug and applied to surface of Nematode Growth Media (NGM) plates previously seeded with OP50 or RNAi bacteria, at a final concentration of 0.05 μg/ml. Fat content was monitored and recorded by fluorescence microscopy.
Nile Red Staining was visualized by using a Nikon TE2000S microscope equipped with a CY3 filter (emission 535-685 nm). Images were captured using a SPOT RT monochrome digital camera attached to the Nikon Microscope with SPOT RT software v3.5. All Nile red images were acquired using identical settings and exposure times and then changed to red palette.

[3] = test system: DAF-16 mutant worms (mgDf47); test: Nile Red staining of fat accumulation in DAF-16 mutant worms (mgDf47); assay type: in vivo, C. elegans; conditions: defective in insulin-signaling
Experimental: Sir2.1, which is activated by resveratrol, acts via the transcription factor DAF-16 to prolong lifespan in […] (Tissenbaum and Guarente (2001) Nature 410:227).
C. elegans strains were maintained as described at 25° C., except when noted (Brenner (1974) Genetics 77:71). The wild type reference strain was N2 Bristol; the mutant strains were: sir-2.1(ok434), T01C8.1(ok524), and daf-16 (mgDf47). Daf-16 (mgDf47) was obtained from the Ruvkun laboratory, MGH; all other strains were obtained from the Caenorhabditis Genetics Center (from C. Elegans Gene Knockout Consortium).
as §1

phosphorylation of ACC [4] = test: Western blot of ACC phosphorylation in 3T3-L1 adipocytes; assay type: cell-based; conditions: harvested 6 or 10 days after induction of differentiation
Experimental: Phosphorylation of ACC, which reflects AMPK activity, was also observed in 3T3-L1 adipocytes treated with either ethanol or resveratrol. 3T3-L1 cells were incubated with either ethanol or resveratrol and then harvested either 6 or 10 days after they were induced to differentiate into adipocytes from the parent 3T3 fibroblast cell line. […] ACC was also phosphorylated when the cells were incubated in serum free media overnight before harvesting (lanes marked “SF”). The reason for the extra band in the SIRT1 blot at day 6 is unknown, but we hypothesize that it may be a modified form of SIRT1. Tubulin served as a loading control.

[5] = test system: Wild-type N2 C. elegans worms; test: Nile Red staining of fat accumulation in wild-type N2 C. elegans; assay type: in vivo; conditions: 100 μM, L1 animals, 48 hours, control 2.5% v/v DMSO

SMILES: Oc1ccc(/C=C/c2cc(O)cc(O)c2)cc1 [resveratrol, 3,5,4′-Trihydroxy-trans-stilbene]
- fat mobilization (C. elegans worms; RNA inactivation of DAF-16, or inactivation of DAF-16 by mutation): had no effect on resveratrol-stimulated fat mobilization
- fat mobilization (C. elegans worms; RNA inactivation of TOC1.8 (AMPK homolog) or F41E7.3 (COT homolog)): blocks resveratrol-stimulated fat mobilization
- reduction of fat content (C. elegans worms; RNAi vector alone, 100 μM resveratrol, Nile Red assessed after 24 hours): 75%
- fat mobilization (C. elegans worms; Sir2.1 RNAi (R11A8.4)): did not show resveratrol induced fat mobilization
- phosphorylation of ACC (phosphorylation of ACC [1]): Phosphorylation of ACC was not affected
- fat accumulation ([2]; 10 μM or 50 μM): marked decrease in fat accumulation
- reduction of fat accumulation ([2]; 100 μM): 90%
- fat mobilization and fat accumulation [3]: stimulates fat mobilization and a decrease in fat accumulation
- phosphorylation of ACC (phosphorylation of ACC [4]): stimulated the phosphorylation of ACC at both day 6 and day 10
- fat staining [5]: Significant reduction of fat staining
